The text below walks through data of patent publication US11649207B2, “Formulations of T-type calcium channel modulators and methods of use thereof” (PRAXIS PRECISION MEDICINES, INC., priority 2019, dated 2023).

The series relates to essential tremor. As to the kind of experiment: Clinical study in essential tremor (TETRAS, accelerometer). The class given is in vivo, human. Particulars: essential tremor patient, emerging data. On the procedure: A clinical study was conducted to investigate the efficacy, safety, and tolerability of the compound of formula (I) in essential tremor. A patient who has been diagnosed with essential tremor completed 3 study periods: Screening, Treatment period (14 days), and Safety follow-up. The patient received a stable dose of 1 tremor medication throughout the clinical trial. The patient received 20 mg of the compound of formula (I) (one tablet of formulation 5) orally once a day for 7 days and 40 mg of the compound of formula (I) (two tablets of 20 mg formulation 5) orally once a day for 7 days (total of 14 days consecutively). Efficacy of the compound of formula (I) on upper limb tremor was assessed by The Essential Tremor Rating Assessment Scale (TETRAS) upper limb score at Baseline, on Day 7, and on Day 14. Efficacy of the compound of formula (I) on other measures of tremor severity was assessed by TETRAS performance subscale score, TETRAS performance individual items, and accelerometer at Baseline, on Day 7, and on Day 14.

Take `CC(C)(C)NC(=O)CN1CCC(CNC(=O)c2cc(F)cc(Cl)c2)CC1` [compound of formula (I)]: the tolerability result is “well tolerated”.
